From US10968183B2, “Small molecule FIEL1 inhibitor in inflammatory and fibrotic lung injury” (UNIVERSITY OF PITTSBURGH—OF THE COMMONWEALTH SYSTEM OF …, priority 2015, dated 2021)

Test system: PIAS4
Assay: PIAS4 protein half-life study (cycloheximide) in MLE cells
Type: cell-based, murine
Details: compound 5 μM for 18 h; FIG. 15F
Excerpt: FIG. 9A. PIAS4 protein half-life study in MLE cells transfected with Empty plasmid or Ubiquitin plasmid. FIG. 9B. PIAS4 protein half-life study with MG132 or Leupeptin. FIG. 9C. Immunoblots showing levels of PIAS4 proteins and V5 after ectopic FIEL1 or UBE3B plasmid expression. FIG. 9D. Immunoblots showing levels of FIEL1 proteins after ectopic FIEL1 plasmid expression in MLE, HeLa, and 293T cells. FIG. 9E. Immunoblots showing levels of PIAS4 proteins and V5 after ectopic FIEL1 plasmid expression in HeLa and 293T cells. FIG. 9F. MLE cells were transfected with an inducible control or FIEL1 plasmid under control of exogenous doxycycline. Cells were treated with doxycycline in a dose dependent manner. Cells were then collected and cell lysates were immunoblotted for FIEL1 and PIAS4. FIG. 9G. MRC5 cells were exposed to TGFβ for 24 h before being assayed for PIAS4 and FIEL1 protein half-lives.
FIG. 15A. Diagram of the BC-1485 synthesis process. FIGS. 15B-15C. Docking studies of the lead compound, BC-1485, interacting with the FIEL1-HECT domain. FIG. 15D. MRC5 cells were treated with the compound at various doses; cells were also co-treated with TGFβ at 2 ng/ml. 18 h later, cells were collected and assayed for α-SMA expression. FIG. 15E. MRC5 cells were seeded in 35 mm glass bottom dishes before co-treatment with TGFβ at 2 ng/ml and BC-1480 or BC1485 at 5μM. FIG. 15F. PIAS4 protein half-life determination after BC-1480 or BC1485 treatment at 5μM for 18 h. FIG. 15G. PIAS4 and KIAA0317 mRNA analysis after BC1485 treatment for 18 h.
MLE cells were cultured in Dulbecco's Modified Eagle Medium-F12 (Gibco) supplemented with 10% fetal bovine serum (DMEM-10). 293T cells were cultured in Dulbecco's Modified Eagle Medium (Gibco) supplemented with 10% fetal bovine serum (DMEM-10). MRC5 cells were cultured in Eagle's Minimum Essential Medium (Gibco) supplemented with 10% fetal bovine serum (EMEM-10). For protein expression in MLE cells, nucleofection was used following Amaxa's protocol. For protein overexpression in 293T cells, Fugene6HD transfection reagents were used following the manufacturer's protocol. […]

Which PIAS4 protein half-life does the source give for `CC(NC(=O)c1ccc(NS(=O)(=O)c2ccc3[nH]c(=O)[nH]c3c2)cc1)C(=O)N(C)C` (stereo not shown) [BC-1485] here?
Its PIAS4 protein half-life is “stabilized PIAS4 by extending its half-life”.
